Results from ChEMBL document CHEMBL1201862, “PubChem BioAssay data set” (2004).
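Exposure lasted 48 hours, with cells grown in 96-well plates and compounds tested at five concentrations. GI50 is the concentration that inhibits growth by half.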 Active and inactive are the calls of the source. Cut-off read from the data, not from the text of the source: active = GI50 up to about 1.1 µM and inactive = higher.

Assays:
Experiment in all cases: inhibition of tumour cell growth, NCI panel, 48 h
HCT-15 = tested on: HCT-15
TK-10 = tested on: TK-10
LOX IMVI = tested on: LOX IMVI
SNB-75 = tested on: SNB-75
SF-295 = tested on: SF-295
RXF 393 = tested on: RXF 393
HL-60 = tested on: HL-60
A498 = tested on: A498
786-0 = tested on: 786-0
M19-MEL = tested on: M19-MEL
CAKI-1 = tested on: CAKI-1
SW-620 = tested on: SW-620
M14 = tested on: M14
SK-MEL-5 = tested on: SK-MEL-5
HCT-116 = tested on: HCT-116
Hs-578T = tested on: Hs-578T
T47D = tested on: T47D
MCF7 = tested on: MCF7
NCI/ADR-RES = tested on: NCI/ADR-RES
PC-3 = tested on: PC-3

SMILES | GI50 (HCT-15) [µM] | GI50 (TK-10) | GI50 (LOX IMVI) | GI50 (SNB-75) | GI50 (SF-295) | GI50 (RXF 393) | GI50 (HL-60) | GI50 (A498) | GI50 (786-0) | GI50 (M19-MEL) | GI50 (CAKI-1) | GI50 (SW-620) | GI50 (M14) | GI50 (SK-MEL-5) | GI50 (HCT-116) | GI50 (Hs-578T) | GI50 (T47D) | GI50 (MCF7) | GI50 (NCI/ADR-RES) | GI50 (PC-3)
COC(=O)/C(C#N)=C1\CCc2ccccc21 | > 100 | > 100 µM (inactive) | > 100 µM (inactive) | > 100 µM (inactive) | > 100 µM (inactive) | > 100 µM (inactive) | > 100 µM (inactive) | > 100 µM (inactive) | > 100 µM (inactive) | > 100 µM (inactive) | > 100 µM (inactive) | > 100 µM (inactive) | > 100 µM (inactive) | > 100 µM (inactive) |  |  |  |  |  | 
COc1cc(CNc2cnc3cc(N)ccc3n2)cc(OC)c1OC | 23 | 64.9 µM (inactive) | 23.9 µM (inactive) | 31.6 µM (inactive) | 17.3 µM (inactive) |  | 7.21 µM (inactive) | 26.5 µM (inactive) | 43.7 µM (inactive) | 16.5 µM (inactive) | 34.7 µM (inactive) | 20 µM (inactive) | 16.4 µM (inactive) | 14.9 µM (inactive) | 18.7 µM (inactive) |  |  |  |  | 
CCOC(=O)CN.CCOC(=O)Nc1ccc(S(=O)(=O)OC)cc1.CCOC(=O)Nc1ccc(S(=O)(=O)OC)cc1 | > 50 | > 50 µM (inactive) | > 50 µM (inactive) | > 50 µM (inactive) | > 50 µM (inactive) |  | > 50 µM (inactive) | > 50 µM (inactive) | > 50 µM (inactive) | > 50 µM (inactive) | > 50 µM (inactive) | 7.83 µM (inactive) | > 50 µM (inactive) | > 50 µM (inactive) | > 50 µM (inactive) |  |  |  |  | 
Cc1ccc(C2(O)CC(c3ccc([N+](=O)[O-])o3)=NN2C(=O)COc2ccccc2Cl)cc1 (stereo unspecified) | 4.68 | 35.7 µM (inactive) | 5.45 µM (inactive) | 15.3 µM (inactive) | 15.3 µM (inactive) |  | 2.84 µM (inactive) | 12.9 µM (inactive) | 5.75 µM (inactive) | 3.69 µM (inactive) | 19.4 µM (inactive) | 6.7 µM (inactive) | 8.45 µM (inactive) | 2.75 µM (inactive) | 5.6 µM (inactive) |  |  |  |  | 
Cn1ccc(=NS(=O)(=O)c2ccccc2)cc1 |  | > 100 µM (inactive) | > 100 µM (inactive) | > 100 µM (inactive) | > 100 µM (inactive) | > 100 µM (inactive) | > 100 µM (inactive) | > 100 µM (inactive) | > 100 µM (inactive) | > 100 µM (inactive) |  | > 100 µM (inactive) |  | > 100 µM (inactive) | > 100 µM (inactive) |  |  |  |  | 
CC1=C(/C=C/C(C)=C/C=C/C(C)=C/C(=O)O)C(C)(C)CCC1 [TRETINOIN] | 48.2 | 71.8 µM (inactive) | 31.9 µM (inactive) | > 61.9 µM (inactive) | 54.8 µM (inactive) | > 68.1 µM (inactive) | 18 µM (inactive) | > 74.5 µM (inactive) | 49.9 µM (inactive) | > 100 µM (inactive) | > 70.6 µM (inactive) | 45.8 µM (inactive) | 49.4 µM (inactive) | 47.8 µM (inactive) | 48.6 µM (inactive) | > 43 µM (inactive) | 2.55 µM (inactive) | 29 µM (inactive) | 37.3 µM (inactive) | 39.6 µM (inactive)
C#CCNC(=O)NC(CCCCNC(=O)OCc1ccccc1)C(=O)OCc1ccccc1 (stereo unspecified) | > 100 | 37.6 µM (inactive) | 33.7 µM (inactive) | 16.2 µM (inactive) | > 61 µM (inactive) | 10.8 µM (inactive) | 16 µM (inactive) | 21.9 µM (inactive) | > 95.7 µM (inactive) | 11.3 µM (inactive) | > 74 µM (inactive) | > 100 µM (inactive) | 22.7 µM (inactive) | 18.3 µM (inactive) | > 100 µM (inactive) | > 100 µM (inactive) |  | > 100 µM (inactive) | > 100 µM (inactive) | > 67 µM (inactive)
CC(C(=O)c1ccc(O)cc1)C1(O)C(=O)Nc2c(Cl)cc(Cl)cc21 (stereo unspecified) | 71.6 | > 100 µM (inactive) | 24.8 µM (inactive) | 47.6 µM (inactive) | 45.4 µM (inactive) | 24.6 µM (inactive) | 20.9 µM (inactive) | > 49.1 µM (inactive) | 48.1 µM (inactive) | 20.6 µM (inactive) | > 100 µM (inactive) | 32.9 µM (inactive) | 26.7 µM (inactive) | 17.1 µM (inactive) | 43.1 µM (inactive) |  |  |  |  | 
C#CCOCn1cnc2c(Sc3c([N+](=O)[O-])ncn3C)ncnc21 | > 100 | > 100 µM (inactive) | > 100 µM (inactive) | 22.8 µM (inactive) | > 100 µM (inactive) | > 100 µM (inactive) | > 100 µM (inactive) | > 100 µM (inactive) | > 100 µM (inactive) | > 100 µM (inactive) | > 100 µM (inactive) | > 100 µM (inactive) | > 100 µM (inactive) | > 100 µM (inactive) |  |  |  |  |  | 
